# Assay results taken from PubChem BioAssay AID1259407 (Chemical Carcinogenesis Research Information System (CCRIS), 2018).
# Calls of active or inactive are those of the source. No rule for the calls is given here.
# Test system: CCRIS mutagenicity, Ames/micronucleus/aberration tests
# Experiment: CCRIS mutagenicity studies
# [1] = Test System: AMES SALMONELLA TYPHIMURIUM, Strain/Indicator: TA98, Metabolic Activation: NONE, Method: PREINCUBATION
# [2] = Test System: AMES SALMONELLA TYPHIMURIUM, Strain/Indicator: TA100, Metabolic Activation: NONE, Method: PREINCUBATION
structure (smiles),measurement,setting,value
CC(=O)Nc1ccc(Oc2ccc(N(OC(C)=O)C(C)=O)cc2)cc1,mutagenic call,"Test System: AMES SALMONELLA TYPHIMURIUM, Strain/Indicator: TA98(1,8-DNP6), Metabolic Activation: NONE, Method: PREINCUBATION",active; positive
same,mutagenic call,"Test System: AMES SALMONELLA TYPHIMURIUM, Strain/Indicator: TA98(1,8-DNP6), Metabolic Activation: RAT, LIVER, S-9, AROCLOR 1254, Method: PREINCUBATION",active; positive
same,mutagenic call,"Test System: AMES SALMONELLA TYPHIMURIUM, Strain/Indicator: TA98(NR), Metabolic Activation: NONE, Method: PREINCUBATION",active; positive
same,mutagenic call,"Test System: AMES SALMONELLA TYPHIMURIUM, Strain/Indicator: TA98(NR), Metabolic Activation: RAT, LIVER, S-9, AROCLOR 1254, Method: PREINCUBATION",active; positive
same,mutagenic call,[1],active; positive
same,mutagenic call,"Test System: AMES SALMONELLA TYPHIMURIUM, Strain/Indicator: TA98, Metabolic Activation: RAT, LIVER, S-9, AROCLOR 1254, Method: PREINCUBATION",active; positive
same,mutagenic call,"Test System: AMES SALMONELLA TYPHIMURIUM, Strain/Indicator: TA100(NR), Metabolic Activation: NONE, Method: PREINCUBATION",active; positive
same,mutagenic call,"Test System: AMES SALMONELLA TYPHIMURIUM, Strain/Indicator: TA100(NR), Metabolic Activation: RAT, LIVER, S-9, AROCLOR 1254, Method: PREINCUBATION",active; positive
same,mutagenic call,[2],active; positive
same,mutagenic call,"Test System: AMES SALMONELLA TYPHIMURIUM, Strain/Indicator: TA100, Metabolic Activation: RAT, LIVER, S-9, AROCLOR 1254, Method: PREINCUBATION",active; positive
[O]=[V]([OH])([OH])[OH],mutagenic call,"End Point: IN VIVO MICRONUCLEUS, Test System: POLYCHROMATIC ERYTHROCYTES, Species: MOUSE, Strain/Sex: (102/E1 X C3H/E1)F1/MALE, Route: IP INJECTION",inactive; negative
Nc1c(Cl)cc([N+](=O)[O-])cc1[N+](=O)[O-],mutagenic call,"End Point: IN VITRO CHROMOSOMAL ABERRATIONS, Test System: CHL CELLS, Metabolic Activation: RAT, LIVER, S-9, SODIUM PHENOBARBITAL AND 5,6-BENZOFLAVONE",active; positive (structural changes); authors report equivocal results for ploidy chang
same,mutagenic call,[1],active; positive
same,mutagenic call,"Test System: AMES SALMONELLA TYPHIMURIUM, Strain/Indicator: TA98, Metabolic Activation: RAT, LIVER, S-9, KANECHLOR 500, Method: PREINCUBATION",active; positive
same,mutagenic call,"Test System: AMES SALMONELLA TYPHIMURIUM, Strain/Indicator: TA98, Metabolic Activation: RAT, LIVER, S-9, PHENOBARBITAL AND BETA-NAPHTHOFLAVONE, Method: PREINCUBATION",active; positive
same,mutagenic call,[2],active; positive
same,mutagenic call,"Test System: AMES SALMONELLA TYPHIMURIUM, Strain/Indicator: TA100, Metabolic Activation: RAT, LIVER, S-9, KANECHLOR 500, Method: PREINCUBATION",active; positive
same,mutagenic call,"Test System: AMES SALMONELLA TYPHIMURIUM, Strain/Indicator: TA100, Metabolic Activation: RAT, LIVER, S-9, PHENOBARBITAL AND BETA-NAPHTHOFLAVONE, Method: PREINCUBATION",active; positive
CCCCN(N=O)/C(C=O)=N/O,mutagenic call,"Test System: AMES SALMONELLA TYPHIMURIUM, Strain/Indicator: TA1535, Metabolic Activation: NONE, Method: STANDARD PLATE",active; positive
same,mutagenic call,"Test System: E. COLI, Strain/Indicator: WP2 (HCR-), Metabolic Activation: NONE, Method: STANDARD PLATE",active; positive
